Assay results: US20090143279A1 (priority 2007, published 2009)
Where two headings read alike, the source gives them in different places.

Columns and labels:
[1] = tested on: cytochrome c; format: cell-based, mouse; conditions: for cyt c (composite Z-score): normalized score vs mock-treated (DMSO) wells
[2] = tested on: reactive oxygen species; format: cell-based, mouse; conditions: for ROS (composite Z-score): normalized score vs mock-treated (DMSO) wells
[3] = tested on: mitochondrial membrane potential; format: cell-based, mouse; conditions: for ΔΨm (composite Z-score): normalized score vs mock-treated (DMSO) wells
[4] = tested on: C2C12 myotubes; conditions: for Viability (composite Z-score): normalized score vs mock-treated (DMSO) wells
[5] = tested on: OXPHOS gene expression; format: cell-based, mouse; conditions: for GE-HTS (composite Z-score): normalized score vs mock-treated (DMSO) wells
[6] = tested on: mtOXPHOS transcripts; format: cell-based, mouse; conditions: for mitoOX (composite Z-score): normalized score vs mock-treated (DMSO) wells
[7] = tested on: nuOXPHOS transcripts; format: cell-based, mouse; conditions: for nucOX (composite Z-score): normalized score vs mock-treated (DMSO) wells
[8] = tested on: cellular dehydrogenase activity; conditions: for MTT (composite Z-score): normalized score vs mock-treated (DMSO) wells
[9] = normalized composite Z-score vs mock-treated (DMSO) wells, Conc 20 μM
[10] = 20 μM, composite Z-score vs DMSO
[11] = 20.6 μM, composite Z-score vs DMSO
[12] = composite Z-score vs mock-treated (DMSO) wells, Conc 20 μM
[13] = composite Z-score vs DMSO wells, Conc 20 μM
[14] = composite Z-score vs DMSO, Conc 11.16 μM
[15] = composite Z-score vs mock-treated (DMSO) wells, concentration of each compound in μM
[16] = 18.5 μM, composite Z-score vs DMSO

With `CCC(N)C(O)c1ccc(O)c(O)c1` (stereo not shown) [ethylnorepinephrine] the “cyt c (composite Z-score)” value ([1]; Conc 20 μM) was −0.439, the “ROS (composite Z-score)” value ([2]; Conc 20 μM) was −0.396 and the “ΔΨm (composite Z-score)” value ([3]; Conc 20 μM) was −2.053. The “Viability (composite Z-score)” value ([4]; Conc 20 μM) was −0.508, the “GE-HTS (composite Z-score)” value ([5]; Conc 20 μM) was −0.475 and the “mitoOX (composite Z-score)” value ([6]; Conc 20 μM) was −0.921. For the same compound, the “nucOX (composite Z-score)” value ([7]; Conc 20 μM) was −0.195 and the “MTT (composite Z-score)” value ([8]; Conc 20 μM) was −1.017.
`CCCCC[C@H](CC(=O)O)C(=O)O` [nonic acid] showed a cyt c [1, 9] of −0.133, an ROS [2, 9] of 1.211 and a ΔΨm [3, 9] of −0.931. The Viability [4, 9] was −1.043, the GE-HTS [5, 9] was −0.080 and the mitoOX [6, 9] was 0.061. It also gave a nucOX [7, 9] of −0.104 and an MTT [8, 9] of −1.857.
`Nc1ccc(C(=O)NCC(=O)O)cc1` [aminohippuric acid] was tested, and the cyt c [1, 10] was 0.243, the cyt c [1, 11] was 0.320 and the ROS [2, 10] was −0.310. It also gave an ROS [2, 11] of 0.426, a ΔΨm [3, 10] of −0.606 and a ΔΨm [3, 11] of −0.343. For the same compound, the Viability [4, 10] was 0.597, the Viability [4, 11] was −0.266 and the GE-HTS [5, 10] was 0.220. The GE-HTS [5, 11] was 0.568, the mitoOX [6, 10] was 0.304 and the mitoOX [6, 11] was −0.395. It also gave a nucOX [7, 10] of 0.160, a nucOX [7, 11] of 0.976 and an MTT [8, 10] of −0.983. It also gave an MTT [8, 11] of −0.126.
With `COC(=O)C[C@H]1C(C)(C)C2(O)OC34CC2C(=O)[C@]1(C)C3CC[C@]1(C)C4=CC(=O)O[C@H]1c1ccoc1` (stereo partly drawn) [8beta-hydroxycarapin, 3,8-hemiacetal] the “cyt c (composite Z-score)” value ([1]; Conc 20 μM) was 0.436, the “ROS (composite Z-score)” value ([2]; Conc 20 μM) was 1.075 and the “ΔΨm (composite Z-score)” value ([3]; Conc 20 μM) was −0.251. For the same compound, the “Viability (composite Z-score)” value ([4]; Conc 20 μM) was 0.561, the “GE-HTS (composite Z-score)” value ([5]; Conc 20 μM) was 0.600 and the “mitoOX (composite Z-score)” value ([6]; Conc 20 μM) was 0.789. For the same compound, the “nucOX (composite Z-score)” value ([7]; Conc 20 μM) was 0.472 and the “MTT (composite Z-score)” value ([8]; Conc 20 μM) was 0.204.
With `CC(=O)c1c(O)c(C)c(O)c2c1oc1c(C(C)=O)c(O)c(C)c(O)c12` [diacetyldideisovaleryl-rhodomyrtoxin] the cyt c [1, 12] was 0.057, the ROS [2, 12] was 0.967 and the ΔΨm [3, 12] was 1.937. It also gave a Viability [4, 12] of −0.779, a GE-HTS [5, 12] of −0.776 and a mitoOX [6, 12] of −0.703. It also gave a nucOX [7, 12] of −0.742 and an MTT [8, 12] of 0.875.
`C[C@]12C=CC(=O)C=C1CC[C@@H]1[C@@H]2C(=O)C[C@@]2(C)[C@H]1CC[C@]2(O)C(=O)CO` [prednisone] showed a cyt c [1, 13] of −0.034, a cyt c [1, 14] of −0.428 and an ROS [2, 13] of 0.253. For the same compound, the ROS [2, 14] was 0.623, the ΔΨm [3, 13] was 0.258 and the ΔΨm [3, 14] was −0.474. The Viability [4, 13] was −0.474, the Viability [4, 14] was −1.668 and the GE-HTS [5, 13] was −0.290. The GE-HTS [5, 14] was −0.315, the mitoOX [6, 13] was −0.473 and the mitoOX [6, 14] was −0.048. The nucOX [7, 13] was −0.177, the nucOX [7, 14] was −0.432 and the MTT [8, 13] was −1.054. The MTT [8, 14] was −1.206.
`NC[C@H]1O[C@H](O[C@H]2[C@H](O)[C@@H](O[C@H]3O[C@H](CO)[C@@H](O)[C@H](N)[C@H]3O)[C@H](N)C[C@@H]2N)[C@H](O)[C@@H](O)[C@@H]1O` [kanamycin A] showed a cyt c [1, 15] of −0.131, an ROS [2, 15] of 1.383 and a ΔΨm [3, 15] of −0.812. For the same compound, the Viability [4, 15] was −1.015, the GE-HTS [5, 15] was −0.270 and the mitoOX [6, 15] was −0.323. For the same compound, the nucOX [7, 15] was −0.218 and the MTT [8, 15] was −1.149.
For `O=C(O[C@@H]1Cc2c(O)cc(O)cc2O[C@@H]1c1cc(O)c(O)c(O)c1-c1c([C@H]2Oc3cc(O)cc(O)c3C[C@H]2O)cc(O)c(O)c1O)c1cc(O)c(O)c(O)c1` [2′,2′-bisepigallocatechin monogallate], the “cyt c (composite Z-score)” value ([1]; Conc 20 μM) was 0.246, the “ROS (composite Z-score)” value ([2]; Conc 20 μM) was 0.428 and the “ΔΨm (composite Z-score)” value ([3]; Conc 20 μM) was −2.350. The “Viability (composite Z-score)” value ([4]; Conc 20 μM) was 0.442, the “GE-HTS (composite Z-score)” value ([5]; Conc 20 μM) was −0.573 and the “mitoOX (composite Z-score)” value ([6]; Conc 20 μM) was −0.575. The “nucOX (composite Z-score)” value ([7]; Conc 20 μM) was −0.545 and the “MTT (composite Z-score)” value ([8]; Conc 20 μM) was −1.318.
Compound `CN(C)c1nc(N(C)C)nc(N(C)C)n1` [altretamine] has a cyt c [1] of 0.040, a cyt c [1, 10] of −0.631 and an ROS [2] of 0.462. It also gave an ROS [2, 10] of 0.103, a ΔΨm [3] of −0.440 and a ΔΨm [3, 10] of −0.322. The Viability [4] was −0.533, the Viability [4, 10] was −0.315 and the GE-HTS [5] was 0.884. It also gave a GE-HTS [5, 10] of 0.379, a mitoOX [6] of 0.972 and a mitoOX [6, 10] of 0.069. For the same compound, the nucOX [7] was 0.750, the nucOX [7, 10] was 0.488 and the MTT [8] was −0.442. The MTT [8, 10] was −1.416.
Work on `C[C@]12CCC(=O)C=C1CCc1ccc(O)cc12` yielded a cyt c [1, 12] of −0.516, an ROS [2, 12] of 0.676 and a ΔΨm [3, 12] of −0.484. For the same compound, the Viability [4, 12] was −0.592, the GE-HTS [5, 12] was 0.075 and the mitoOX [6, 12] was 0.846. It also gave a nucOX [7, 12] of −0.281 and an MTT [8, 12] of −0.984.
`COc1ccc(-c2coc3c(OC)c(OC)cc(OC)c3c2=O)cc1` [isotectorigenin trimethyl ether] was tested, and the cyt c [1, 12] was 0.640, the ROS [2, 12] was 0.359 and the ΔΨm [3, 12] was 0.413. It also gave a Viability [4, 12] of 0.976, a GE-HTS [5, 12] of 0.437 and a mitoOX [6, 12] of 0.418. For the same compound, the nucOX [7, 12] was 0.426 and the MTT [8, 12] was −1.465.
`O=C(Oc1cc(OC(=O)c2ccccc2)c2c(c1)O[C@H](c1ccc(OC(=O)c3ccccc3)c(OC(=O)c3ccccc3)c1)[C@@H](OC(=O)c1ccccc1)C2)c1ccccc1` [catechin pentabenzoate] was tested, and the “cyt c (composite Z-score)” value ([1]; Conc 20 μM) was 1.272, the “ROS (composite Z-score)” value ([2]; Conc 20 μM) was 0.599 and the “ΔΨm (composite Z-score)” value ([3]; Conc 20 μM) was −1.326. The “Viability (composite Z-score)” value ([4]; Conc 20 μM) was −1.434, the “GE-HTS (composite Z-score)” value ([5]; Conc 20 μM) was −0.898 and the “mitoOX (composite Z-score)” value ([6]; Conc 20 μM) was −0.896. For the same compound, the “nucOX (composite Z-score)” value ([7]; Conc 20 μM) was −0.815 and the “MTT (composite Z-score)” value ([8]; Conc 20 μM) was −1.672.
`COC(=O)C[C@H]1C(C)(C)[C@@H](OC(C)=O)[C@@H]2CC3C4CC(=O)O[C@@H](c5ccoc5)[C@]4(C)CCC3[C@@]1(C)C2=O` (stereo partly shown) [dihydrofissinolide] gave a cyt c [1, 12] of −0.122, an ROS [2, 12] of 1.029 and a ΔΨm [3, 12] of 0.196. For the same compound, the Viability [4, 12] was 0.139, the GE-HTS [5, 12] was −0.253 and the mitoOX [6, 12] was 0.041. It also gave a nucOX [7, 12] of −0.350 and an MTT [8, 12] of −1.189.
Compound `COc1c2occc2cc2ccc(=O)oc12` [methoxy-8-psoralen] has a cyt c [1, 16] of 0.227, an ROS [2, 16] of 0.103 and a ΔΨm [3, 16] of 0.605. It also gave a Viability [4, 16] of 1.463, a GE-HTS [5, 16] of 0.803 and a mitoOX [6, 16] of 0.340. It also gave a nucOX [7, 16] of 0.952 and an MTT [8, 16] of −0.371.
With `CO[C@H]1C[C@H](O[C@H]2CC[C@]3(C=O)[C@H]4CC[C@]5(C)[C@@H](C6=CC(=O)OC6)CC[C@]5(O)[C@@H]4CC[C@]3(O)C2)O[C@H](C)[C@H]1O` [cymarin] the “cyt c (composite Z-score)” value ([1]; Conc 20 μM) was 0.356, the “ROS (composite Z-score)” value ([2]; Conc 20 μM) was 0.695 and the “ΔΨm (composite Z-score)” value ([3]; Conc 20 μM) was −0.996. The “Viability (composite Z-score)” value ([4]; Conc 20 μM) was −1.155, the “GE-HTS (composite Z-score)” value ([5]; Conc 20 μM) was −0.473 and the “mitoOX (composite Z-score)” value ([6]; Conc 20 μM) was −0.464. The “nucOX (composite Z-score)” value ([7]; Conc 20 μM) was −0.412 and the “MTT (composite Z-score)” value ([8]; Conc 20 μM) was −1.849.
In the case of `CC1COc2c(N3CCN(C)CC3)c(F)cc3c(=O)c(C(=O)O)cn1c23` (stereo not shown) [ofloxacin], the cyt c [1] is reported as 0.492, the cyt c [1, 10] is reported as 0.309 and the ROS [2] is reported as 0.908. It also gave an ROS [2, 10] of −0.182, a ΔΨm [3] of −0.891 and a ΔΨm [3, 10] of −0.281. It also gave a Viability [4] of −0.425, a Viability [4, 10] of −1.148 and a GE-HTS [5] of 0.182. The GE-HTS [5, 10] was −0.458, the mitoOX [6] was 0.353 and the mitoOX [6, 10] was −0.041. It also gave a nucOX [7] of 0.059, a nucOX [7, 10] of −0.622 and an MTT [8] of −0.967. The MTT [8, 10] was −1.248.
